Experimental data from patent US20250127887A1 (priority 2021, published 2025).
Square brackets hold non-standard residues; d marks the D form. Ends that are not written are not given here. * marks the point of attachment. Azp = azidopentanoic acid, [N-]=[N+]=NCCCCC(=O)*; Cit = NC(=O)NCCC[C@H](N)C(=O)O

Legend:
[1] = pH-responsiveness of carboxylic acid amphiphiles by turbidity (OD at 490 nm); format: physicochemical; details: 0.1 mM in 1×PBS at pH 7.4, 7.0 or 6.5
T cells = assay: In vitro T cell recognition of modified E7 and Reps1 peptide antigen fragments; format: cell-based; details: E7 (RAHYNIVTF) and Reps1 (AQLANDVVL) fragments modified at N- or C-terminus; FIGS. 28A and B
Description: To study the impact of the solubilizing block and extensions on peptide antigen recognition by T cells in vitro, two model antigens, E7 ([…]) and Reps1 ([…]), modified at the N-terminal and/or C-terminal positions were produced by solid-phase peptide synthesis (Tables 25 and 26), and then screened in vitro for T cell recognition (FIG. 28).

[2] = system: antigen specific CD4 T cells expressing FOXP3; assay: Proportion of T cells expressing Tbet or Foxp3; Treg induction by tolerance vaccines with inhibitors and immunostimulants; format: cell-based
OT-II cells = assay: In vitro induction of regulatory T cells by tolerance vaccine formulations in co-culture of CD11c+ APCs and OT-II cells, flow cytometry; format: cell-based; details: 500 nM peptide antigen conjugate, three days
[3] = format: physicochemical; details: pH 7.4
[4] = Torin-1 combined with TLR-7/8a 2BXy, peptide antigen conjugate 500 nM

## {Succinic acid}4K2K{Lys(N3-DBCO)}-Ahx-2B3W2 [Compound 274]
[1]
  pH-responsiveness: aggregation / particle size stability by turbidity (OD at 490 nm): stable particle sizes down to at least pH 7.0

## 364: "modification of the N-terminus of peptide antigen fragments (e.g., Compounds, 343 and 364) negatively impacts potency" (Azp-V[Cit]AQLANDVVL-NH2; SMILES CC(C)C[C@H](NC(=O)[C@@H](NC(=O)[C@@H](NC(=O)[C@H](CC(=O)O)NC(=O)[C@H](CC(N)=O)NC(=O)[C@H](C)NC(=O)[C@H](CC(C)C)NC(=O)[C@H](CCC(N)=O)NC(=O)[C@H](C)NC(=O)[C@H](CCCNC(N)=O)NC(=O)[C@@H](NC(=O)CCCCN=[N+]=[N-])C(C)C)C(C)C)C(C)C)C(N)=O) [Compound 364]
T cells
  potency for T cell recognition: negatively impacts potency

## 343: "modification of the N-terminus of peptide antigen fragments (e.g., Compounds, 343 and 364) negatively impacts potency" (Azp-V[Cit]RAHYNIVTFS-NH2; SMILES CC[C@H](C)[C@H](NC(=O)[C@H](CC(N)=O)NC(=O)[C@H](Cc1ccc(O)cc1)NC(=O)[C@H](Cc1c[nH]cn1)NC(=O)[C@H](C)NC(=O)[C@H](CCCNC(=N)N)NC(=O)[C@H](CCCNC(N)=O)NC(=O)[C@@H](NC(=O)CCCCN=[N+]=[N-])C(C)C)C(=O)N[C@H](C(=O)N[C@H](C(=O)N[C@@H](Cc1ccccc1)C(=O)N[C@@H](CO)C(N)=O)[C@@H](C)O)C(C)C) [Compound 343]
T cells
  potency for T cell recognition: negatively impacts potency

## 341: "modification of the C-terminus of peptide antigen fragments (e.g., Compounds 341 and 362) is more well tolerated" (RAHYNIVTFSV[Cit][Azidolysine]-NH2) [Compound 341]
T cells
  potency for T cell recognition: more well tolerated

## CCC(=O)N1CCN(c2ccc(-n3c(=O)ccc4cnc5ccc(-c6cnc7ccccc7c6)cc5c43)cc2C(F)(F)F)CC1 [Torin-1, Torin 1]
[2]; Torin-1 combined with TLR-7/8a 2BXy, versus other immunostimulants
  Magnitude of Tregs induced by tolerance vaccines: highest magnitude Treg responses
[2]; [4]
  Magnitude of Treg responses, fold higher than Torin-1 alone: 2 fold
  Magnitude of Treg responses, fold higher than the vaccine without Torin-1: 8 fold
[2]; compared with SR1555, rapamycin and ITE, peptide antigen conjugate 500 nM
  Proportion of antigen specific CD4 T cells expressing FOXP3: higher proportion of antigen specific CD4 T cells expressing FOXP3
OT-II cells
  proportion of Tregs (Treg/Tbet) relative to formulations with rapamycin: 2-4 fold
OT-II cells; vaccines with inhibitor vs without inhibitors, FIGS. 25 and 26
  number and proportion of Tregs induced: significantly higher

## KKKKKKK-SGSGSGSGSGSGSGSGSGSGSGSG-(Lys(N3-DBCO))-Ahx-(F′)5 [Compound 91]
[3]
  Size (diameter, nm): 477 nm
